Measured values: US20030100769A1, “Cyclic amidine compounds” (priority 2000, published 2003)
Read-outs that look alike come from different tables or passages of the source.

Assays:
[1] = molecular target: T1, α4β2 subtype of nicotinic acetylcholine receptors (Rattus norvegicus, UniProt P09483+P12390); test: Binding assay at α4β2 subtype of nicotinic acetylcholine receptors ([3H]-cytisine, rat brain membrane)
T1 construct: examined using rat brain membrane obtained from whole homogenized brain; from tissue; host or cells: rat whole brain membranes (Fischer-344 male rats)
Description: (§1) The methods for evaluating the binding capabilities of the compounds at nicotinic acetylcholine receptors are different by subtypes of receptors. The binding capabilities of the compounds at α4β2 nicotinic acetylcholine receptors are examined using rat brain membrane obtained from whole homogenized brain, and determining the inhibiting rate of the compounds against [^3H]-cytisine binding to said brain membrane. Furthermore, the binding capabilities of the compounds at α1β1γδ nicotinic acetylcholine receptors are examined using homogenized rat muscle, and determining the inhibiting rate of the compounds against [^3H]-α-bungarotoxin binding to said muscle homogenate.
Binding Assays at α4β2 Subtype of Nicotinic Acetylcholine Receptors
(1) Preparation of Rat Brain Membrane Containing α4β2 Subtype of Nicotinic Acetylcholine Receptors
Rats were housed in the breeding cage controlled of the room temperature at 23±1° C., and the humidity of 55±5% for 1 to 4 weeks. Rats (3 to 4 rats per a cage) were housed with lights on for 12 hours daily (from 7:00 to 19:00), and allowed free access to food and water.
Preparation of rat brain membrane containing α4β2 subtype of nicotinic acetylcholine receptors was performed as follow. That is, rat brains were isolated just after sacrificed by decapitation, washed with ice-cooled saline solution and then frozen at −80° C. with liquid nitrogen and stored till using. After thawing the frozen brain, the brain was homogenized in 10 volumes of ice-cooled buffer solution (50 mM of Tris-HCl, 120 mM of NaCl, 5 mM of KCl, 1 mM of MgCl2, 2 mM of CaCl2; pH 7.4; 4° C.) using homogenizer (HG30, Hitachi Kohki Ltd.) for 30 seconds, and the homogenate were centrifuged under 1,000×G for 10 minutes at 4° C. The resulting supernatant was separated and the pellet was homogenized again with half volume of aforementioned prior buffer solution and centrifuged under the same conditions. Combined supernatant was further centrifuged under 40,000×G for 20 minutes at 4° C. The pellet was suspended in buffer solution and used for binding assays at receptors.
(2) Experiments of α4β2 Subtype of Nicotinic Acetylcholine Receptors Binding
Suspensions of membrane pellets containing 400-600 μg of protein were added to test tubes containing test compounds and [^3H]-cytisine (2 nM) in a final volume of 200 μl and incubated for 75 minutes in ice-cooled bath. The samples were isolated by vacuum filtration onto Whatman GF/B filters, which were prerinsed with 0.5% polyethylenimine just prior to sample filtration, using Brandel multi manifold cell harvester. The filters were rapidly washed with buffer solution (3×1 ml). The filters were counted in 3 ml of clearsol I (Nacalai Tesque Inc.).
The analyses of the experimental results were conducted by using the Accufit Competition Program (Beckman Ltd.).

[2] = molecular target: α1β1γδ subtype of nicotinic acetylcholine receptors (Rattus norvegicus, UniProt P18916+P25108+P25109+P25110); test: biochemical; type: binding; conditions: for remaining activity at 100 µM: read-out: control % of [3H]-α-Bgt binding at 100 μM of test compound; for remaining activity at 1000 µM: read-out: control % of [3H]-α-Bgt binding at 1,000 μM of test compound
Description: as §1
Binding Assays at α1β1γδ Subtype of Nicotinic Acetylcholine Receptors
The affinity of the compounds of the present invention to α1β1γδ subtype of nicotinic acetylcholine receptors was measured by the following method, which was modified method described by Garcha H. S., Thomas P., Spivak C.
(1) Preparation of Rat Skeletal Muscles Containing α1β1γδ Subtype of Nicotinic Acetylcholine Receptors
The substantially same animals described in the Biological Experiment 1 were used.
The isolation of α1β1γδ subtype of nicotinic acetylcholine receptors was performed as follow. That is, rat posterior skeletal muscles were isolated just after sacrificed by decapitation, washed with ice-cooled saline solution and then frozen at −80° C. with liquid nitrogen and stored till using. After thawing the frozen muscles, tissue was homogenized ([…]) with buffer solution [2.5 mM of sodium phosphate buffer (pH:7.2), 90 mM of NaCl, 2 mM of KCl, 1 mM of EDTA, 2 mM of benzamidine, 0.1 mM of benzethonium chloride, 0.1 mM of PMSF, 0.01% of sodium azide] in Waring blender (Waring blender 34BL97; WARING PRODUCTS DIVISION DYNAMICS CORPORATION OF AMERICA) for 60 seconds. The homogenate were centrifuged under 20,000×G for 60 minutes at 4° C. The supernatant was separated and the resulting pellet was added to the same buffer (1.5 ml/g wet weight), and homogenized under the same conditions. Triton X100 (2% w/v) was added and the mixture was stirred for 3 hours at 4° C. The centrifugation at 100,000×G for 60 minutes at 4° C. yielded the rat muscle extract as supernatant. This was stored at 4° C. for up to 4 weeks, and used for binding assays at receptors.
(2) Experiments of α1β1γδ Subtype of Nicotinic Acetylcholine Receptors Binding
Receptors binding experiments were performed as follow. That is, the extract of rat muscle containing 600-900 μg of protein was added to test tubes containing test compounds and incubated for 15 minutes at 37° C. Then, to this mixture was added 1 nM of [^3H]-α-bungarotoxin (α-Bgt) and further incubated for 2 hours. The samples were isolated by vacuum filtration onto Whatman GF/B filters, which were prerinsed with 0.5% polyethylenimine just prior to sample filtration, using Brandel multi manifold cell harvester. The filters were rapidly rinsed with washing solution (10 mM of KH2PO4, 150 mM of NaCl, pH 7.2, room temperature) (5×1 ml). The filters were counted in 3 ml of clearsol I (Nacalai Tesque Inc.). The determination of nonspecific binding was incubated in the presence of 1 μM α-Bgt. […] In the receptor binding experiments, said buffer solution was added for adjusting the final concentration of BSA to be 0.05%.
The analyses of the experimental results were conducted by the same way as described in the Biological Experiment 1.

[3] = rat brain membrane, [3H]-cytisine 2 nM, read-out: Affinities for receptors Ki α4β2

T1 sequence (P09483 31-630): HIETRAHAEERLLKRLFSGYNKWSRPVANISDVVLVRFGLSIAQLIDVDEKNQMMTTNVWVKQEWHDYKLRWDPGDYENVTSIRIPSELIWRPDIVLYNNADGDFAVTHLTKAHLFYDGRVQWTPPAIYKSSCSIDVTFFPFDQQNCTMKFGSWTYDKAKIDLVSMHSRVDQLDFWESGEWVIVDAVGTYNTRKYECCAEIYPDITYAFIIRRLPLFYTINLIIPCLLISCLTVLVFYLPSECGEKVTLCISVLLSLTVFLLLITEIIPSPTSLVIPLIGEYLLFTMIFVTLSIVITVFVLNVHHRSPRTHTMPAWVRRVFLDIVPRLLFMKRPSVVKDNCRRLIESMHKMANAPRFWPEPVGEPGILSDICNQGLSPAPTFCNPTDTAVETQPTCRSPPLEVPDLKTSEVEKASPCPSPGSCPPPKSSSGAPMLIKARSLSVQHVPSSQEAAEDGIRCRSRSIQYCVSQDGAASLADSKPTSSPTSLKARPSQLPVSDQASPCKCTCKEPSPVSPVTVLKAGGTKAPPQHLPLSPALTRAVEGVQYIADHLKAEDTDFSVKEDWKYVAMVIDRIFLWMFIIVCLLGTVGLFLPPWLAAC
T1 sequence (P12390 25-500): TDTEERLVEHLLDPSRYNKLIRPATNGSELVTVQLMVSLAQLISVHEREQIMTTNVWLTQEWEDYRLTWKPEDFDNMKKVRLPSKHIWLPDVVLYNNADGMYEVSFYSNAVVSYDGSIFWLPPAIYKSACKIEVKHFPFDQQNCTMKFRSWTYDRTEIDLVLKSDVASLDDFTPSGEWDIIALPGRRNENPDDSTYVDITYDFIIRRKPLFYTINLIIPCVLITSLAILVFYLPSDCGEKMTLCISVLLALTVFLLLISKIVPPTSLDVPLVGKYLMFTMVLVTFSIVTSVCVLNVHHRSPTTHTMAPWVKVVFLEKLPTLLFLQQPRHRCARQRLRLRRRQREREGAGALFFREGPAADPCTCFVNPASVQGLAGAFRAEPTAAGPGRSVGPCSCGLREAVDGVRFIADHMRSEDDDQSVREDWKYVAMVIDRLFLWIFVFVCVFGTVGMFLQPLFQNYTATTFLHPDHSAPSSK
Chain of α1β1γδ subtype of nicotinic acetylcholine receptors (P25109 24-501): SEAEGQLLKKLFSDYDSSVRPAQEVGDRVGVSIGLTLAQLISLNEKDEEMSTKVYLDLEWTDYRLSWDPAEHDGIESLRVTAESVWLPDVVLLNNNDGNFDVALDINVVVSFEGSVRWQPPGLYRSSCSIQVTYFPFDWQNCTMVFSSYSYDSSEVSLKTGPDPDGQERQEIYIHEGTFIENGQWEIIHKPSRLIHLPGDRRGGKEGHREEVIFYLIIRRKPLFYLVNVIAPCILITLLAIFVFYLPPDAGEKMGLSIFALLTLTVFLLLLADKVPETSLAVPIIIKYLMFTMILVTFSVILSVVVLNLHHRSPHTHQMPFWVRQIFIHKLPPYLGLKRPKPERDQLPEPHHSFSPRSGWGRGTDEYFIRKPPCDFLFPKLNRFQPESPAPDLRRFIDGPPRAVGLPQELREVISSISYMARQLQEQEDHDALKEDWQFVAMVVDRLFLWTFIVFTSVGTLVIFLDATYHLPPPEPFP
Chain of α1β1γδ subtype of nicotinic acetylcholine receptors (P25110 22-517): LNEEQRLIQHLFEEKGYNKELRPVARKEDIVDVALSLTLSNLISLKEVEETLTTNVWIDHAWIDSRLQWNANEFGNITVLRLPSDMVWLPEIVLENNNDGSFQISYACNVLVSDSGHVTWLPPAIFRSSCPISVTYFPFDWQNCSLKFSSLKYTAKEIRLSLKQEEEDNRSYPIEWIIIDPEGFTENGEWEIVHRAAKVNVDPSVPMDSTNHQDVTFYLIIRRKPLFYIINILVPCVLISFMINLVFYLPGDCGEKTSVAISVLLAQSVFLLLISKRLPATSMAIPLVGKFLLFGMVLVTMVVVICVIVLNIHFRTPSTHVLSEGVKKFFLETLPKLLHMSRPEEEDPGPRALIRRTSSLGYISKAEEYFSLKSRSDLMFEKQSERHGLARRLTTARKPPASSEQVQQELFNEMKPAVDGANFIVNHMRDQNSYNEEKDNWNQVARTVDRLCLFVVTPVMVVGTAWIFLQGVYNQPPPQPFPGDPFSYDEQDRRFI
Chain of α1β1γδ subtype of nicotinic acetylcholine receptors (P25108 21-457): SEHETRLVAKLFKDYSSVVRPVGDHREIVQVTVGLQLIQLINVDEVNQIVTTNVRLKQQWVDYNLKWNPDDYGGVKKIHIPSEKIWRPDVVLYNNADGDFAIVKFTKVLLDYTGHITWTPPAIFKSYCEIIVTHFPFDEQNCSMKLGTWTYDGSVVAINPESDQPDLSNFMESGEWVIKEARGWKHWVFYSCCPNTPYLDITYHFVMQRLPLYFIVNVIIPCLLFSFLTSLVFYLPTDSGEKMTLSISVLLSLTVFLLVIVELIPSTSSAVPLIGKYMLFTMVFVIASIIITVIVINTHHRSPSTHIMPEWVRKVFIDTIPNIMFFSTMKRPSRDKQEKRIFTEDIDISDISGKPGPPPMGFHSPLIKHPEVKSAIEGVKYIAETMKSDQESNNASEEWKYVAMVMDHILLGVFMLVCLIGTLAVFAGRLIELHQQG

Row | SMILES | Ki [1, 3] [µM] | remaining activity at 100 µM [2] [%] | remaining activity at 1000 µM [2] [%] | Ki [1] [µM] | Ki [2] [µM]
1 | C1CN=C(CC2CCOC2)NC1 (stereo not drawn) [Compound 15, 2-(tetrahydrofuran-3-yl)methyl-1,4,5,6-tetrahydropyrimidine] | 0.95 |  |  |  | 
2 | Brc1cncc(CC2=NCCCN2)c1 [Compound 16, 2-(5-bromo-3-pyridyl)methyl-1,4,5,6-tetrahydropyrimidine] |  | 63 | 30 | 0.392 | 
3 | Clc1ncc(CC2=NCCCN2)s1 [Compound 64, 2-(2-chloro-5-thiazolyl)methyl-1,4,5,6-tetrahydropyrimidine] |  |  |  | 0.0081 | 23
4 | Clc1cc(CC2=NCCCN2)cnc1Cl [Compound 36, 2-(5,6-dichloro-3-pyridyl)methyl-1,4,5,6-tetrahydropyrimidine] |  | 81 | 34 | 0.124 | 
5 | c1cncc(CC2=NCCCN2)c1 [Compound 18, 2-(3-pyridyl)methyl-1,4,5,6-tetrahydropyrimidine] |  | 62 | 18 | 0.086 | 
6 | CC1=NCCN1Cc1ccc(Cl)nc1 [Compound 11, 1-(6-chloro-3-pyridyl)methyl-2-methyl-2-imidazoline] |  | 74 | 53 | 0.115 | 
7 | C1=NCC(c2cccnc2)N1 (stereo not drawn) [Compound 33, 5-(3-pyridyl)-2-imidazoline] |  |  |  | 0.365 | 
8 | CC1=NCC(c2cccnc2)N1 (stereo not drawn) [Compound 32, 2-methyl-5-(3-pyridyl)-2-imidazoline] | 0.58 | 69 | 35 |  | 
9 | Clc1ccc(CC2=NCCN2)cn1 [Compound 7, 2-(6-chloro-3-pyridyl)methyl-2-imidazoline] |  | 80 | 51 | 0.086 | 
10 | CN1CCN=C1Cc1ccc(Cl)nc1 [Compound 9, 2-(6-chloro-3-pyridyl)methyl-1-methyl-2-imidazoline] |  | 43 | 16 | 0.0077 | 
11 | c1ccc2ncc(C3=NCCCN3)cc2c1 [Compound 25, 2-(3-quinolyl)-1,4,5,6-tetrahydropyrimidine] | 0.338 | 41 | 7 |  | 
12 | Cc1ccc(CC2=NCCCN2)cn1 [Compound 43, 2-(6-methyl-3-pyridyl)methyl-1,4,5,6-tetrahydropyrimidine] |  | 71 | 28 | 0.167 | 
13 | c1ncc(CC2=NCCCN2)cn1 [Compound 66, 2-(5-pyrimidyl)methyl-1,4,5,6-tetrahydropyrimidine] |  |  |  | 0.09 | 841
14 | Fc1ccc(CC2=NCCCN2)cn1 [Compound 48, 2-(6-fluoro-3-pyridyl)methyl-1,4,5,6-tetrahydropyrimidine] |  |  |  | 0.082 | 257
15 | Clc1ccc(CC2=NCCCN2)cn1 [Compound 8, 2-(6-chloro-3-pyridyl)methyl-1,4,5,6-tetrahydropyrimidine] |  |  |  | 0.029 | 395
16 | CC1CCNC(Cc2ccc(Cl)nc2)=N1 (stereo not drawn) [Compound 54, 2-(6-chloro-3-pyridyl)methyl-4-methyl-1,4,5,6-tetrahydropyrimidine] |  |  |  | 0.108 | 1740
17 | Cc1cncc(CC2=NCCCN2)c1 [Compound 68, 2-(5-methyl-3-pyridyl)methyl-1,4,5,6-tetrahydropyrimidine] |  |  |  | 0.203 | 231
18 | Clc1ncc(CC2=NCCN2)s1 [Compound 65, 2-(2-chloro-5-thiazolyl)methyl-2-imidazoline] |  |  |  | 0.053 | 524
19 | Clc1cc(CN2C=NCCC2)cnc1Cl [Compound 52, 1-(5,6-dichloro-3-pyridyl)methyl-1,4,5,6-tetrahydropyrimidine] |  |  |  | 0.0012 | 23
20 | c1cncc(CC2=NCCN2)c1 [Compound 19, 2-(3-pyridyl)methyl-2-imidazoline] |  | 69 | 29 |  | 
21 | CN1CCCN=C1c1ccc(Cl)nc1 [Compound 4, 2-(6-chloro-3-pyridyl)-1-methyl-1,4,5,6-tetrahydropyrimidine] |  | 46 | 16 | 0.067 | 
22 | CN1CCCN=C1Cc1ccc(Cl)nc1 [Compound 10, 2-(6-chloro-3-pyridyl)methyl-1-methyl-1,4,5,6-tetrahydropyrimidine] |  | 40 | 17 | 0.001 | 
23 | CN1CCN=C1Cc1cnc(Cl)c(Cl)c1 [Compound 53, 2-(5,6-dichloro-3-pyridyl)methyl-1-methyl-2-imidazoline] |  |  |  | 0.01 | 83
24 | Clc1cc(CC2=NCCN2)cnc1Cl [Compound 49, 2-(5,6-dichloro-3-pyridyl)methyl-2-imidazoline] | 0.211 |  |  |  | 773
25 | CC1(C)CN(Cc2ccc(Cl)nc2)C=N1 [Compound 12, 1-(6-chloro-3-pyridyl)methyl-4,4-dimethyl-2-imidazoline] |  | 79 | 42 | 0.268 | 
